Laboratory results published in patent US10435399B2, “HDAC6 inhibitory heterocyclic compound” (TAKEDA PHARMACEUTICAL COMPANY LIMITED, priority 2017, dated 2019).

What follows are compounds tested against T1, HDAC6 enzyme (Homo sapiens, UniProt Q9UBN7) (assay: HDAC6 enzyme inhibitory activity (HDAC-Glo I/II Assay kit)). Details: 10 μM; wells without enzyme = 100% inhibition.
T1 construct: transducing full length HDAC6 gene into Sf-9 insect cells; GST; purchased SignalChem; host or cells: Sf-9 insect cells
T1 sequence (Q9UBN7 1-1215): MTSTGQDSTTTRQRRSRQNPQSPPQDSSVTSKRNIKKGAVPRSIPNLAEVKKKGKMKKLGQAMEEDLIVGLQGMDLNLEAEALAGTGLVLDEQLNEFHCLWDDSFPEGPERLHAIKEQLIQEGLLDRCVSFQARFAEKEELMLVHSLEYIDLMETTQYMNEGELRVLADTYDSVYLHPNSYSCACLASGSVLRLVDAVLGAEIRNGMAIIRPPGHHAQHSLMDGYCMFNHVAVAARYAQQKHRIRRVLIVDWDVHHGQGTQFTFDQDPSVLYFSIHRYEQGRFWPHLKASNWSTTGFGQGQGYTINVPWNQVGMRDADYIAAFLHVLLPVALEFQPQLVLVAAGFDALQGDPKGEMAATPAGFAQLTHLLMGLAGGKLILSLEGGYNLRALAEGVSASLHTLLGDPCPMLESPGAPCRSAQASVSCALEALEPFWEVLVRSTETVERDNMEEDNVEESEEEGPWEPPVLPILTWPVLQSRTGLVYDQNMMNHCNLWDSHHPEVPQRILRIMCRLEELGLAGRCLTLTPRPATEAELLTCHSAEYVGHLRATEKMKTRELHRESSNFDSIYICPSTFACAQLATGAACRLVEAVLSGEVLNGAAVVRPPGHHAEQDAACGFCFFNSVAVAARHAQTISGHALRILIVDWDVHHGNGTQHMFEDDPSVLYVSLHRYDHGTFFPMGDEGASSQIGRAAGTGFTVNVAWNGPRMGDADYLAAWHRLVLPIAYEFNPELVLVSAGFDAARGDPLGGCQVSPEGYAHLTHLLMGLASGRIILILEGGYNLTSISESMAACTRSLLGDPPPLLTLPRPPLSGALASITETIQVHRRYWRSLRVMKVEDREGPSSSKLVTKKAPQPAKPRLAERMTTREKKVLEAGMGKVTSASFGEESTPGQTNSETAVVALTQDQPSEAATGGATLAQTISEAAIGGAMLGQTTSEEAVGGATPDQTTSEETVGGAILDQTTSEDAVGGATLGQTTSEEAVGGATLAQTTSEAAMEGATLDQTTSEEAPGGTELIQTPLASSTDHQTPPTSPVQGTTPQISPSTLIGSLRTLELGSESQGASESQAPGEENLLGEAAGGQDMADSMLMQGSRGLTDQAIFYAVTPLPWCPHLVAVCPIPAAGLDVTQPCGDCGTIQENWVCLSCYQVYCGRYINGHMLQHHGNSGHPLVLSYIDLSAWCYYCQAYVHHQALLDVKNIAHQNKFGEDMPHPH
Assay type: biochemical
Summary of the method: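 Sf-9-derived GST-purified full-length HDAC6 + cpd, 60 min RT, 24 mM Tris pH 7.5/0.6 mM glutathione/0.01% Tween-20; add HDAC-Glo substrate-developer, 20 min RT; luminescence. No-enzyme = 100% inhibition.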
With `O=C1c2cc(-c3nnc(C(F)F)o3)ccc2CN1[C@@H]1CCN(C(=O)C2(C(F)(F)F)CC2)C[C@H]1c1ccc(F)cc1` [Example 508, 6-(5-(difluoro-methyl)-1,3,4-oxadiazol-2-yl)-2-((3R,4R)-3-(4-fluorophenyl)-1-((1-(trifluoro-methyl)cyclo-propyl)carbonyl)pipeiridin-4-yl) isoindolin-1-one] the “HDAC6 inhibitory rate (%) (10 μM)” value was 100%.

Same assay, conditions: 10 μM; wells without enzyme = 100% inhibition; read-out: HDAC6 inhibitory rate (%) (10 μM)
`COc1ccc(N2Cc3ccc(-c4nnc(C(F)F)o4)cc3C2=O)c(-c2ccccc2)c1` [Example 484, 6-(5-(difluoro-methyl)-1,3,4-oxadiazol-2-yl)-2-(5-methoxy-biphenyl-2-yl) isoindolin-1-one] gave an inhibition at 10 µM of 100%. With `O=C1c2cc(-c3nnc(C(F)F)o3)ccc2CN1c1ccc(OC(F)(F)F)cc1-c1ccccc1` [Example 485, 6-(5-(difluoro-methyl)-1,3,4-oxadiazol-2-yl)-2-(5-(trifluoro-methoxy)biphenyl-2-yl) isoindolin-1-one] the inhibition at 10 µM was 100%. In the case of `O=C1c2cc(-c3nnc(C(F)F)o3)ccc2CN1c1ccc(F)cc1-n1cc(C2CC2)cn1` [Example 486, 2-(2-(4-cyclo-propyl-1H-pyrazol-1-yl)-4-fluorophenyl)-6-(5-(difluoro-methyl)-1,3,4-oxadiazol-2-yl) isoindolin-1-one], the inhibition at 10 µM is reported as 100%. `O=C1c2cc(-c3nnc(C(F)F)o3)ccc2CN1c1ccccc1Cc1ccccc1` [Example 487, 2-(2-benzyl-phenyl)-6-(5-(difluoro-methyl)-1,3,4-oxadiazol-2-yl) isoindolin-1-one] gave an inhibition at 10 µM of 99%. `CCc1cnn(-c2cc(F)ccc2N2Cc3ccc(-c4nnc(C(F)F)o4)cc3C2=O)c1` [Example 488, 6-(5-(difluoro-methyl)-1,3,4-oxadiazol-2-yl)-2-(2-(4-ethyl-1H-pyrazol-1-yl)-4-fluoro-phenyl) isoindolin-1-one] showed an inhibition at 10 µM of 100%. Work on `O=C1c2cc(-c3nnc(C(F)F)o3)ccc2CN1N1CCCCC1c1ccccc1` (centres unmarked) [Example 490, 6-(5-(difluoro-methyl)-1,3,4-oxadiazol-2-yl)-2-(2-phenyl-piperidin-1-yl) isoindolin-1-one] yielded an inhibition at 10 µM of 98%. Work on `O=C1c2cc(-c3nnc(C(F)F)o3)ccc2CN1N1CCCC1c1ccccc1` (centres unmarked) [Example 491, 6-(5-(difluoro-methyl)-1,3,4-oxadiazol-2-yl)-2-(2-phenyl-pyrrolidin-1-yl) isoindolin-1-one] yielded an inhibition at 10 µM of 99%. For `Cn1cc(N2Cc3ccc(-c4nnc(C(F)F)o4)cc3C2=O)c(Br)n1` [Example 492, 2-(3-bromo-1-methyl-1H-pyrazol-4-yl)-6-(5-(difluoro-methyl)-1,3,4-oxadiazol-2-yl) isoindolin-1-one], the inhibition at 10 µM was 91%. `Cn1cc(N2Cc3ccc(-c4nnc(C(F)F)o4)cc3C2=O)c(-c2ccccc2)n1` [Example 493, 6-(5-(difluoro-methyl)-1,3,4-oxadiazol-2-yl)-2-(1-methyl-3-phenyl-1H-pyrazol-4-yl) isoindolin-1-one] gave an inhibition at 10 µM of 99%. With `COC(=O)N1CC[C@@H](N2Cc3ncc(-c4nnc(C(F)F)o4)cc3C2=O)[C@H](c2ccc(F)cc2)C1` [Example 494, methyl (3R,4R)-4-(3-(5-(difluoro-methyl)-1,3,4-oxadiazol-2-yl)-5-oxo-5,7-dihydro-6H-pyrrolo[3,4-b]pyridin-6-yl)-3-(4-fluoro-phenyl) piperidine-1-carboxylate] the inhibition at 10 µM was 100%. Work on `N[C@@H]1CCCC(F)(F)[C@H]1N1Cc2ncc(-c3nnc(C(F)F)o3)cc2C1=O` [Example 495, 6-((1S,6R)-6-amino-2,2-difluorocyclo-hexyl)-3-(5-(difluoro-methyl)-1,3,4-oxadiazol-2-yl)-6,7-dihydro-5H-pyrrolo [3,4-b] pyridin-5-one] yielded an inhibition at 10 µM of 89%. `CC(C)(C)OC(=O)N[C@@H]1CCCC(F)(F)[C@H]1N1Cc2ncc(-c3nnc(C(F)F)o3)cc2C1=O` [Example 496, tert-butyl ((1R,2S)-2-(3-(5-(difluoro-methyl)-1,3,4-oxadiazol-2-yl)-5-oxo-5,7-dihydro-6H-pyrrolo[3,4-b]pyridin-6-yl)-3,3-difluoro-cyclohexyl) carbamate] was tested, and the inhibition at 10 µM was 100%. `O=C1c2cc(-c3nnc(C(F)F)o3)cnc2CN1[C@H]1[C@H](NC(=O)C(F)(F)C(F)(F)F)CCCC1(F)F` [Example 497, N-((1R,2S)-2-(3-(5-(difluoro-methyl)-1,3,4-oxadiazol-2-yl)-5-oxo-5,7-dihydro-6H-pyrrolo[3,4-b]pyridin-6-yl)-3,3-difluoro-cyclohexyl)-2,2,3,3,3-pentafluoro-propanamide] was tested, and the inhibition at 10 µM was 101%. For `O=C(C1CC1)N1CC[C@@H](N2Cc3ncc(-c4nnc(C(F)F)o4)cc3C2=O)[C@H](c2ccc(F)cc2)C1` [Example 498, 6-((3R,4R)-1-(cyclopropyl-carbonyl)-3-(4-fluorophenyl)piperidin-4-yl)-3-(5-(difluoro-methyl)-1,3,4-oxadiazol-2-yl)-6,7-dihydro-5H-pyrrolo [3,4-b]pyridin-5-one], the inhibition at 10 µM was 100%. In the case of `COC(=O)N1CC[C@@H](N2Cc3ncc(-c4nnc(C(F)F)o4)cc3C2=O)[C@H](c2ccc(F)c(F)c2)C1` [Example 499, methyl (3R,4R)-4-(3-(5-(difluoro-methyl)-1,3,4-oxadiazol-2-yl)-5-oxo-5,7-dihydro-6H-pyrrolo[3,4-b]pyridin-6-yl)-3-(3,4-difluoro-phenyl) piperidine-1-carboxylate], the inhibition at 10 µM is reported as 99%. For `CC(F)(F)C(=O)N[C@@H]1CCCC(F)(F)[C@H]1N1Cc2ncc(-c3nnc(C(F)F)o3)cc2C1=O` [Example 500, N-((1R,2S)-2-(3-(5-(difluoro-methyl)-1,3,4-oxadiazol-2-yl)-5-oxo-5,7-dihydro-6H-pyrrolo[3,4-b]pyridin-6-yl)-3,3-difluoro-cyclohexyl)-2,2-difluoro-propanamide], the inhibition at 10 µM was 99%. Compound `O=C1c2cc(-c3nnc(C(F)F)o3)ccc2CN1N1CCOCC1c1ccccc1` (centres unmarked) [Example 501, 6-(5-(difluoro-methyl)-1,3,4-oxadiazol-2-yl)-2-(3-phenyl-morpholin-4-yl) isoindolin-1-one] has an inhibition at 10 µM of 98%. Compound `O=C1c2cc(-c3nnc(C(F)F)o3)cnc2CN1[C@@H]1CCCC[C@H]1n1cnc2ccccc21` [Example 502, 6-((1R,2R)-2-(1H-benzimidazol-1-yl)cyclohexyl)-3-(5-(difluoromethyl)-1,3,4-oxadiazol-2-yl)-6,7-dihydro-5H-pyrrolo[3,4-b]pyridin-5-one] has an inhibition at 10 µM of 100%. In the case of `Cc1nc2ccccc2n1[C@@H]1CCCC[C@H]1N1Cc2ncc(-c3nnc(C(F)F)o3)cc2C1=O` [Example 503, 3-(5-(difluoromethyl)-1,3,4-oxadiazol-2-yl)-6-((1R,2R)-2-(2-methyl-1H-benzimidazol-1-yl)cyclohexyl)-6,7-dihydro-5H-pyrrolo[3,4-b]pyridin-5-one], the inhibition at 10 µM is reported as 99%. With `COC(=O)N1CC[C@@H](N2Cc3ccc(-c4nnc(C(F)F)o4)cc3C2=O)[C@H](c2ccc(F)cc2)C1` [Example 505, methyl (3R,4R)-4-(6-(5-(difluoro-methyl)-1,3,4-oxadiazol-2-yl)-1-oxo-1,3-dihydro-2H-isoindol-2-yl)-3-(4-fluoro-phenyl) piperidine-1-carboxylate] the inhibition at 10 µM was 100%. `CC(F)(F)C(=O)N1CC[C@@H](N2Cc3ccc(-c4nnc(C(F)F)o4)cc3C2=O)[C@H](c2ccc(F)cc2)C1` [Example 506, 6-(5-(difluoro-methyl)-1,3,4-oxadiazol-2-yl)-2-((3R,4R)-1-(2,2-difluoro-propanoyl)-3-(4-fluorophenyl)piperidin-4-yl) isoindolin-1-one] showed an inhibition at 10 µM of 99%. With `O=C1c2cc(-c3nnc(C(F)F)o3)ccc2CN1[C@@H]1CCN(C(=O)C2(F)CC2)C[C@H]1c1ccc(F)cc1` [Example 507, 6-(5-(difluoro-methyl)-1,3,4-oxadiazol-2-yl)-2-((3R,4R)-1-((1-fluorocyclo-propyl)carbonyl)-3-(4-fluoro-phenyl)piperidin-4-yl)isoindolin-1-one] the inhibition at 10 µM was 100%.
